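Method: 48-hour compound exposure of cells in 96-well plates, five concentrations, linear interpolation of endpoints. Abbreviation: GI50, concentration required for 50% inhibition of growth. TGI: concentration producing complete growth inhibition.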
Key:
Assay in all cases: inhibition of tumour cell growth, NCI panel, 48 h
[1] = system: 786-0 renal
[2] = system: A498 renal
[3] = system: A549 NSCLC
[4] = system: ACHN renal
[5] = system: BT-549 breast
[6] = system: CAKI-1 renal
[7] = system: CCRF-CEM leukemia
[8] = system: COLO 205 colon
[9] = system: DU-145 prostate
[10] = system: EKVX NSCLC
[11] = system: HCC-2998 colon
[12] = system: HCT-116 colon
[13] = system: HCT-15 colon
[14] = system: HL-60(TB) leukemia
[15] = system: HOP-62 NSCLC
[16] = system: HOP-92 NSCLC
[17] = system: HS 578T breast
[18] = system: HT29 colon
[19] = system: IGROV1 ovarian
[20] = system: K-562 leukemia
[21] = system: KM12 colon
[22] = system: LOX IMVI melanoma
[23] = system: M14 melanoma
[24] = system: MALME-3M melanoma
[25] = system: MCF7 breast
[26] = system: MDA-MB-231 breast
[27] = system: MDA-MB-435
[28] = system: MOLT-4 leukemia
[29] = system: NCI-H226 lung
[30] = system: NCI-H23 lung
[31] = system: NCI-H460 lung
[32] = system: NCI-H522 lung
[33] = system: NCI/ADR-RES ovarian
[34] = system: OVCAR-3 ovarian
[35] = system: OVCAR-4 ovarian
[36] = system: OVCAR-5 ovarian
[37] = system: OVCAR-8 ovarian
[38] = system: PC-3 prostate
[39] = system: RPMI-8226 leukemia
[40] = system: RXF 393 renal
[41] = system: SF-268 CNS
[42] = system: SF-295 CNS
[43] = system: SF-539 CNS
[44] = system: SK-MEL-2 melanoma
[45] = system: SK-MEL-28 melanoma
[46] = system: SK-MEL-5 melanoma
[47] = system: SK-OV-3 ovarian
[48] = system: SN12C renal
[49] = system: SNB-19 CNS
[50] = system: SNB-75 CNS
[51] = system: SR leukemia
[52] = system: SW-620 colon
[53] = system: T-47D breast
[54] = system: TK-10 renal
[55] = system: U251 CNS
[56] = system: UACC-257 melanoma
[57] = system: UACC-62 melanoma
[58] = system: UO-31 renal

CCN(C)S(=O)(=O)Nc1cccc(Nc2ncnc3cc(NC(=O)CCl)ccc23)c1Cl
GI50 [1]: 0.973 µM
TGI [1]: 4.04 µM
GI50 [2]: 5.02 µM
TGI [2]: 24.8 µM
GI50 [3]: 6.18 µM
TGI [3]: 16.3 µM
GI50 [4]: 3.38 µM
TGI [4]: 7.67 µM
GI50 [5]: 2.54 µM
TGI [5]: 6.66 µM
GI50 [6]: 3.15 µM
TGI [6]: 8.5 µM
GI50 [7]: 0.656 µM
TGI [7]: 3.77 µM
GI50 [8]: 2.5 µM
TGI [8]: 6.51 µM
GI50 [9]: 3.69 µM
TGI [9]: 8.86 µM
GI50 [10]: 3.9 µM
TGI [10]: 13.6 µM
GI50 [11]: 3.89 µM
TGI [11]: 9.57 µM
GI50 [12]: 1.07 µM
TGI [12]: 5.04 µM
GI50 [13]: 1.04 µM
TGI [13]: 5.52 µM
GI50 [14]: 4.74 µM
TGI [14]: 11.3 µM
GI50 [15]: 3.42 µM
TGI [15]: 7.73 µM
GI50 [16]: 3.4 µM
TGI [16]: 7.95 µM
GI50 [17]: 3.55 µM
TGI [17]: 18.6 µM
GI50 [18]: 1.33 µM
TGI [18]: 4.83 µM
GI50 [19]: 3.5 µM
TGI [19]: 8.62 µM
GI50 [20]: 1.1 µM
TGI [20]: > 25 µM
GI50 [21]: 4.39 µM
TGI [21]: 12.2 µM
GI50 [22]: 1.01 µM
TGI [22]: 4.44 µM
GI50 [23]: 1.77 µM
TGI [23]: 7.34 µM
GI50 [24]: 1.42 µM
TGI [24]: 5.62 µM
GI50 [25]: 1.11 µM
TGI [25]: 8.33 µM
GI50 [26]: 2.59 µM
TGI [26]: 7.49 µM
GI50 [27]: 1.92 µM
TGI [27]: 6.44 µM
GI50 [28]: 0.926 µM
TGI [28]: 8.83 µM
GI50 [29]: 3.68 µM
TGI [29]: 12.6 µM
GI50 [30]: 2.54 µM
TGI [30]: 7.88 µM
GI50 [31]: 3.57 µM
TGI [31]: 8.6 µM
GI50 [32]: 0.693 µM
TGI [32]: 2.03 µM
GI50 [33]: 9.17 µM
TGI [33]: > 25 µM
GI50 [34]: 3.76 µM
TGI [34]: 7.8 µM
GI50 [35]: 3.53 µM
TGI [35]: 8.75 µM
GI50 [36]: 2.62 µM
TGI [36]: 6.76 µM
GI50 [37]: 5.18 µM
TGI [37]: 17.6 µM
GI50 [38]: 2.97 µM
TGI [38]: 8.32 µM
GI50 [39]: 1.21 µM
TGI [39]: 5.42 µM
GI50 [40]: 3.57 µM
TGI [40]: 7.42 µM
GI50 [41]: 2.84 µM
TGI [41]: 7.72 µM
GI50 [42]: 3.5 µM
TGI [42]: 7.4 µM
GI50 [43]: 3.43 µM
TGI [43]: 6.77 µM
GI50 [44]: 4.36 µM
TGI [44]: 14.3 µM
GI50 [45]: 3.92 µM
TGI [45]: 15.8 µM
GI50 [46]: 3.43 µM
TGI [46]: 7.83 µM
GI50 [47]: 5.58 µM
TGI [47]: 19.1 µM
GI50 [48]: 1.08 µM
TGI [48]: 4.46 µM
GI50 [49]: 2.99 µM
TGI [49]: 7.18 µM
GI50 [50]: 3.36 µM
TGI [50]: 7.67 µM
GI50 [51]: 0.824 µM
TGI [51]: 7.76 µM
GI50 [52]: 1.07 µM
TGI [52]: 4.52 µM
GI50 [53]: 5.01 µM
TGI [53]: 13.2 µM
GI50 [54]: 4.64 µM
TGI [54]: 13.3 µM
GI50 [55]: 0.611 µM
TGI [55]: 1.64 µM
GI50 [56]: 3.59 µM
TGI [56]: 15.8 µM
GI50 [57]: 1.18 µM
TGI [57]: 4.46 µM
GI50 [58]: 4.17 µM
TGI [58]: 7.93 µM

C=CCSc1n[nH]c(-c2cccs2)n1
GI50 [1]: > 100 µM
TGI [1]: > 100 µM
GI50 [2]: > 100 µM
TGI [2]: > 100 µM
GI50 [3]: > 100 µM
TGI [3]: > 100 µM
GI50 [4]: > 100 µM
TGI [4]: > 100 µM
GI50 [5]: > 100 µM
TGI [5]: > 100 µM
GI50 [6]: > 100 µM
TGI [6]: > 100 µM
GI50 [7]: > 100 µM
TGI [7]: > 100 µM
GI50 [8]: > 100 µM
TGI [8]: > 100 µM
GI50 [9]: > 100 µM
TGI [9]: > 100 µM
GI50 [10]: > 100 µM
TGI [10]: > 100 µM
GI50 [11]: > 100 µM
TGI [11]: > 100 µM
GI50 [12]: > 100 µM
TGI [12]: > 100 µM
GI50 [13]: > 100 µM
TGI [13]: > 100 µM
GI50 [14]: > 100 µM
TGI [14]: > 100 µM
GI50 [15]: > 100 µM
TGI [15]: > 100 µM
GI50 [16]: > 100 µM
TGI [16]: > 100 µM
GI50 [17]: > 100 µM
TGI [17]: > 100 µM
GI50 [18]: > 100 µM
TGI [18]: > 100 µM
GI50 [19]: > 100 µM
TGI [19]: > 100 µM
GI50 [20]: > 100 µM
TGI [20]: > 100 µM
GI50 [21]: > 100 µM
TGI [21]: > 100 µM
GI50 [22]: > 100 µM
TGI [22]: > 100 µM
GI50 [23]: > 100 µM
TGI [23]: > 100 µM
GI50 [24]: > 100 µM
TGI [24]: > 100 µM
GI50 [25]: > 100 µM
TGI [25]: > 100 µM
GI50 [26]: > 100 µM
TGI [26]: > 100 µM
GI50 [27]: > 100 µM
TGI [27]: > 100 µM
GI50 [28]: > 100 µM
TGI [28]: > 100 µM
GI50 [29]: > 100 µM
TGI [29]: > 100 µM
GI50 [30]: > 100 µM
TGI [30]: > 100 µM
GI50 [31]: > 100 µM
TGI [31]: > 100 µM
GI50 [32]: > 100 µM
TGI [32]: > 100 µM
GI50 [33]: > 100 µM
TGI [33]: > 100 µM
GI50 [34]: > 100 µM
TGI [34]: > 100 µM
GI50 [35]: > 100 µM
TGI [35]: > 100 µM
GI50 [36]: > 100 µM
TGI [36]: > 100 µM
GI50 [37]: > 100 µM
TGI [37]: > 100 µM
GI50 [38]: > 100 µM
TGI [38]: > 100 µM
GI50 [39]: > 100 µM
TGI [39]: > 100 µM
GI50 [40]: > 100 µM
TGI [40]: > 100 µM
GI50 [41]: > 100 µM
TGI [41]: > 100 µM
GI50 [42]: > 100 µM
TGI [42]: > 100 µM
GI50 [43]: > 100 µM
TGI [43]: > 100 µM
GI50 [44]: > 100 µM
TGI [44]: > 100 µM
GI50 [45]: > 100 µM
TGI [45]: > 100 µM
GI50 [46]: > 100 µM
TGI [46]: > 100 µM
GI50 [47]: > 100 µM
TGI [47]: > 100 µM
GI50 [48]: > 100 µM
TGI [48]: > 100 µM
GI50 [49]: > 100 µM
TGI [49]: > 100 µM
GI50 [50]: > 100 µM
TGI [50]: > 100 µM
GI50 [51]: > 100 µM
TGI [51]: > 100 µM
GI50 [52]: > 100 µM
TGI [52]: > 100 µM
GI50 [53]: > 100 µM
TGI [53]: > 100 µM
GI50 [54]: > 100 µM
TGI [54]: > 100 µM
GI50 [55]: > 100 µM
TGI [55]: > 100 µM
GI50 [56]: > 100 µM
TGI [56]: > 100 µM
GI50 [57]: > 100 µM
TGI [57]: > 100 µM
GI50 [58]: > 100 µM
TGI [58]: > 100 µM

— PubChem BioAssay (NCI)
